Source: US20080255117A1, “SULFONYLTRYPTOPHANOLS” (priority 2007, published 2008)

Target: T1, human FSH receptor (Homo sapiens, UniProt P23945)
T1 construct: expressed in transfected cells; host or cells: CHO cells (hFSHR clone 16)
T1 sequence (P23945 18-695): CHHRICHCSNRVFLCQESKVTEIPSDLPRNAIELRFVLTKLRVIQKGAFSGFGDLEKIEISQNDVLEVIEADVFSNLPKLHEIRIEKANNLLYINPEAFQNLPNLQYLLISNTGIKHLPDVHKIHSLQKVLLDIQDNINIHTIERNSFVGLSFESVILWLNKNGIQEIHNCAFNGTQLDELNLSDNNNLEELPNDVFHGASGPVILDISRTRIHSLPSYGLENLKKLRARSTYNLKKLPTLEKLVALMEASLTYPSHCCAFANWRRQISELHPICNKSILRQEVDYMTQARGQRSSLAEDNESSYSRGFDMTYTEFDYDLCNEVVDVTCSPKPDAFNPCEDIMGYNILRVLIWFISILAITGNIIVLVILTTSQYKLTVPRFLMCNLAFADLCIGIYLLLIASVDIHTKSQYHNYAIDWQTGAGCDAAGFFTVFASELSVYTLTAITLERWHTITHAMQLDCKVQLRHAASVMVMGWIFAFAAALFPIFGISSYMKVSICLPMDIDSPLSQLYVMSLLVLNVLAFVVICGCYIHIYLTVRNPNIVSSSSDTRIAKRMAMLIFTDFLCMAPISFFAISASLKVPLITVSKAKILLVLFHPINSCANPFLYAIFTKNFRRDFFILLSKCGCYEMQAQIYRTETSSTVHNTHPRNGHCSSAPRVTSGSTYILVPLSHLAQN
Test: HTRF assay for measuring cAMP in cells (FSH antagonism)
Type: cell-based
Conditions: FSH antagonistic effect in the HTRF assay; hFSHR clone 16 cells (CHO cells stably transfected with the human FSH receptor); in the presence of 1e-9 mol/l hFSH
Method: HTRF Assay for Measuring cAMP in Cells
The method is based on a competitive immunoassay between native cAMP, which has been produced by the cells, and cAMP which is labelled with cAMPD2 conjugate. The tracer binding was visualized by a monoclonal antibody, anti-cAMP labelled with cryptate [HTRF=homogeneous time-resolved fluorescence].
The specific signal is inversely proportional to the cAMP concentration of the samples employed.
The 665 nm/620 nm fluorescence ratio was evaluated.
The following material was used: 96-well plates for the tissue culture, 96-well plates with black edge and black base (e.g. Fluotrac 600 from Greiner), 96-well plates for the substance dilutions of polypropylene and cAMP Femtomolar (4000 wells Kit, CIS Bio International # 62AM5PEJ).
The following reagents were used: BSA (bovine serum albumin) Fraction V protease-free, IBMX (3-isobutyl-1-methylxanthine), hFSH (human follicle stimulating hormone), Triton X-100 analytical grade, potassium fluoride analytical grade, G 418 (Geneticin) and Accutase.
Buffer 1 (washing and testing buffer) contained PBS, 1 mM CaCl2, 1 mM MgCl2, 0.2% glucose; 0.1% BSA, 1 mM IBMX. […]
The values of the well ratio were averaged and then entered directly in SigmaPlot versus the concentrations. The maximum and minimum values were determined for each plate, and half the difference is to be regarded as IC50.

IC50 [µM]	SMILES
10	N#CCc1ccc(-c2cc3c(c(S(=O)(=O)N[C@@H](CO)Cc4c[nH]c5ccccc45)c2)OCC3)cc1 [Example 52, 5-(4-Cyanomethyl-phenyl)-2,3-dihydro-benzofuran-7-sulfonic acid [(R)-2-hydroxy-1-(1H-indol-3-ylmethyl)-ethyl]-amide]
5	O=S(=O)(N[C@@H](CO)Cc1c[nH]c2ccccc12)c1cc(-c2ccc3ncccc3c2)cc2c1OCC2 [Example 39, 5-Quinolin-6-yl-2,3-dihydro-benzofuran-7-sulfonic acid [(R)-2-hydroxy-1-(1H-indol-3-ylmethyl)-ethyl]-amide]
